Experimental data from US8497274B2, “Heterocyclic compound and use thereof” (Takeda Pharmaceutical Company Limited, priority 2008, dated 2013).

Tests used:
[1] = system: human colon cancer cell HT-29; test: Colon cancer cell HT-29 growth suppressive activity in vitro; type: cell-based
Description: 100 μL of a cell suspension (3,000 cells/well) of human colon cancer cell HT-29 (purchased from ATCC) was plated in a 96-well plate, and the cells were cultured at 37° C. in the presence of 5% CO2. The next day, 100 μL of culture medium containing each test compound diluted in 2-fold dilution was added, and the cells were cultured for 3 days. The culture medium containing the test compound was removed, and the cells were washed with phosphate buffered saline (MP Biochemicals). A 50% trichloroacetic acid solution was added to the final concentration of 10% (v/v), and the mixture was stood overnight at 4° C., whereby the cells were fixed to the plate. Then, a dye SRB 0.4% (w/v) solution (dissolved in 1% acetic acid) was added at 50 μl/well, whereby the cell protein was fixed and stained (Skehan et al., Journal Of National Cancer Institute, vol. 82, pp. 1107-1112, 1990). The cells were washed 3 times with 1% acetic acid solution (200 μL/well), and 100 μL of an extract (10 mM Tris buffer) was added to extract the dye. The absorbance at an absorption wavelength 550 nm was measured, and cell amount was measured as a protein amount. Taking the protein amount of the control group free of the test compound solution as 100%, the proportion of the residual protein amount of each treatment group was determined and the concentration of the compound necessary for suppressing the residual cell amount to 50% of the control (IC50 value) was calculated. In addition, cell proliferation inhibitory rate (%) of the test compound at compound concentration 10 μM was calculated by the following formula. The results are shown in Table 3-B. Inhibitory rate (%)=(1−(absorbance of test compound−blank)÷(absorbance of control group−blank))×100

[2] = system: phosphorylated ERK1/2 in A-375 tumor; test: Intratumor phosphorylated ERK inhibitory activity in malignant melanoma cell A-375 cancer-bearing rat; type: in vivo; settings: phosphorylated ERK1/2 in A-375 tumor of nude rat, 25 mg/kg oral, 4 hrs after administration
Description: Human malignant melanoma cell A-375 (purchased from ATCC) was transplanted into 5-week-old nude rat (F344/N Jcl-mu/mu female (CLEA Japan, Inc.)) at 1.0×10^7 cells by subcutaneous injection. After 2-5 weeks from the transplantation, a test compound dissolved in 5% DMSO, 10% Cremophor, 20% PEG-400 and 65% distilled water was orally administered to rats having an engrafted tumor with a tumor volume of 200-800 mm^3 at a dose of 25 mg/kg body weight. After 4 hrs from the administration of the test compound, the tumor was collected under ether anesthesia and the tumor was homogenized in RIPA buffer (1% NP-40, 0.5% sodium deoxycholate, 1% SDS, 97.5% DPBS (GIBCO) with Protease Inhibitor Cocktail Set 3 (calbiochem) and Phosphatase Inhibitor Cocktail 2 (Sigma)). The protein in the tumor lysate was quantified using BCA Protein assay kit (Thermo), and the protein amount in the tumor lysate was adjusted to 1.25 μg/μL. 2×SDS sample buffer was added to the above-mentioned protein solution and the mixture was treated at 95° C. for 5 min.
Thereafter, SDS-PAGE was performed and the protein was transferred onto Sequi-Blot PVDF Membrane (Bio-Rad) by the Western blot method. The membrane was blocked with 5% (w/v) Block-Ace solution dissolved in phosphate buffered saline and reacted overnight with anti-phosphorylated ERK1/2 (Thr202/Tyr204) (Cell Signaling #9101) diluted 1000-fold with phosphate buffered saline containing 0.4% (w/v) Block-Ace. The membrane was washed with phosphate buffered saline containing 0.1% Tween20 (Wako Pure Chemical Industries, Ltd.), and reacted with HRP-labeled rabbit IgG polyclonal antibody (Cell Signaling #7074) diluted 1000-fold with phosphate buffered saline containing 0.4% Block-Ace for 1 hr at room temperature. […]
(Amersham Biosciences), and detected with luminoimage analyzer LAS-1000 (Fuji Film). The phosphorylated ERK1/2 protein inhibitory rate (%) of the test compound was calculated by the following formula. Inhibitory rate (%)=(1−(luminescence of test compound−blank)÷(luminescence of control group−blank))×100

[3] = system: MEK1/2 phosphorylation in human colon cancer cell HT-29; test: Colon cancer cell HT-29 intracellular MEK phosphorylation inhibitory activity in vitro; type: cell-based; settings: HT-29 cells; for IC50: 2 hrs treatment, phosphorylated MEK1/2 Western blot; for inhibition at 0.5 µM: MEK1/2 protein phosphorylation, compound 0.5 μM, read-out: Inhibitory rate (%) at 0.5 μM
Description: 500 μL of a cell suspension of human colon cancer cell HT-29 (purchased from American Type Culture Collection (ATCC)) was plated in a 48-well plate (100,000 cells/well), and the cells were cultured overnight at 37° C. in the presence of 5% CO2, treated with a test compound (250 μL/well) diluted in 3-fold dilution series and cultured for 2 hrs. After 2 hrs, the culture medium containing the test compound was removed, and the cells were lysed with SDS sample buffer (100 μL/well) and heated at 95° C. for 5 min. Thereafter, the cells lysed with SDS sample buffer were applied to SDS-PAGE, and the protein was transferred onto Sequi-Blot™ PVDF Membrane (Bio-Rad) by the Western blot method. The PDVF membrane was blocked with a Block-Ace solution (Snow Brand Milk Products Co., Ltd) dissolved in phosphate buffered saline (MP Biochemicals) to 5% W/V, and reacted overnight with anti-phosphorylated MEK1/2 (Ser217/221) (Cell signaling #9121) diluted 1000-fold with phosphate buffered saline containing 0.4% Block-Ace. The membrane was washed with phosphate buffered saline containing 0.1% Tween 20 (Wako Pure Chemical Industries, Ltd.), and reacted at room temperature for 1 hr with HRP labeled rabbit IgG polyclonal antibody (Cell signaling #7074) diluted 1000-fold with phosphate buffered saline containing 0.4% Block-Ace. The membrane was washed in the same manner as above, chemical luminescence of a phosphorylated MEK1/2 protein labeled with the antibody, which was caused by ECL-plus Detection Reagent (Amersham bioscience), was detected by Luminescent Image Analyzer LAS-1000 (FUJIFILM Corporation). Taking the luminescence of the control group free of the test compound as 100%, the concentration (IC50 value) of the compound necessary for inhibiting the residual luminescence to 50% of the control group was calculated. In addition, MEK1/2 protein phosphorylation inhibitory rate (%) of the test compound at compound concentration 0.5 μM was calculated by the following formula. The results are shown in Table 2-B. Inhibitory rate (%)=(1−(luminescence of test compound−blank)÷(luminescence of control group−blank))×100

SMILES | IC50 ([1]; 72 h, HT-29 cells, 3 days culture, SRB staining) [nM] | inhibition at 10 µM ([1]; HT-29 cell proliferation, compound 10 μM, read-out: Inhibitory rate (%) at 10 μM) [%] | Inhibitory rate (%) [2] [%] | IC50 [3] [nM] | inhibition at 0.5 µM [3] [%]
N#Cc1c(Oc2cccc(NC(=O)Cc3cccc(C(F)(F)F)c3)c2)ccc2nc(NC(=O)C3CC3)sc12 [Example 50, N-{7-cyano-6-[3-({[3-(trifluoromethyl)phenyl]acetyl}amino)phenoxy]-1,3-benzothiazol-2-yl}cyclopropanecarboxamide] | < 500 | 91 | 76 |  | 
N#Cc1c(Oc2ccc(F)c(NC(=O)Cc3cccc(C(F)(F)F)c3)c2)ccc2nc(NC(=O)C3CC3)sc12 [Example 53, N-{7-cyano-6-[4-fluoro-3-({[3-(trifluoromethyl)phenyl]acetyl}amino)phenoxy]-1,3-benzothiazol-2-yl}cyclopropanecarboxamide] |  |  | 88 | < 300 | 79
CC(C)(C#N)c1cccc(C(=O)Nc2cccc(Oc3ccc4nc(NC(=O)C5CC5)sc4c3C#N)c2)c1Cl [Example 3, 2-chloro-N-[3-({7-cyano-2-[(cyclopropylcarbonyl)amino]-1,3-benzothiazol-6-yl}oxy)phenyl]-3-(1-cyano-1-methylethyl)benzamide] |  |  | 71 | < 300 | 86
